In ChEMBL document CHEMBL1821602, “The Use of 3,5,4'-Tri-O-acetylresveratrol as a Potential Pro-drug for Resveratrol Protects Mice from γ-Irradiation-Induced Death” (ACS Med Chem Lett, 2011):
Calls of active or inactive are those of the source. The rule behind the calls is not given here.

Key:
Mus musculus [1] = species on record: Mus musculus; experiment: Radioprotective activity against 0 to 7 Gy gamma radiation-induced death in mouse 32Dcl3 cells at 10 uM treated 1 hr prior to irradiation after 7 days by microscopy; assay type: functional, cell-based
Mus musculus [2] = experiment: Radioprotective activity against 9.75 Gy gamma radiation-induced death in C57BL/6NHsd mouse assessed as increase in survival rate at 1 mg/kg, ip administered 10 mins prior to irradiation; assay type: functional, organism-based; set-up: dose 1 mg/kg
Serum [3] = experiment: Metabolic stability in mouse serum up to 27 hrs by HPLC analysis; assay type: ADME, cell-free
Mus musculus [4] = experiment: Radioprotective activity against 9.75 Gy gamma radiation-induced death in C57BL/6NHsd mouse assessed as survival rate at 10 mg/kg, ip administered 10 mins prior to irradiation; assay type: functional
[5] = Stability of the compound assessed as half life; assay type: physicochemical
Mus musculus [6] = experiment: Radioprotective activity against 9.75 Gy gamma radiation-induced death in C57BL/6NHsd mouse assessed as increase in survival rate at 25 mg/kg, ip administered 10 mins after irradiation daily for 4 days; assay type: functional, organism-based; set-up: dose 25 mg/kg
[7] = Metabolic stability in mouse serum assessed as half life in presence of 1:1:8 mixture of EtOH/Cremophor EL/H2O by HPLC analysis; assay type: ADME, cell-free
Serum [8] = experiment: Metabolic stability in mouse serum assessed as hydrolysis to resveratrol with in 20 secs by HPLC analysis; assay type: ADME, cell-free; settings: 20 s

**Q.** With `CCCOC(=O)c1cc(O)c(O)c(O)c1` as the compound, how does the Activity (Mus musculus [1]) read?
**A.** The Activity was “inactive”.

**Q.** With `O=C(O[C@@H]1Cc2c(O)cc(O)cc2O[C@H]1c1ccc(O)c(O)c1)c1cc(O)c(O)c(O)c1` as the compound, how does the Activity (Mus musculus [1]) read?
**A.** Its Activity is “inactive”.

**Q.** For `Oc1ccc(/C=C/c2cc(O)cc(O)c2)cc1` [RESVERATROL], which Activity (Mus musculus [2]) is on record?
**A.** The Activity was “inactive”.

**Q.** And the Stability (Serum [3])?
**A.** Its Stability is “Stable”.

**Q.** What about the Activity (Mus musculus [4]) of the same compound?
**A.** The Activity was “inactive”.

**Q.** What about the half-life [5] of the same compound?
**A.** Its half-life is 8 min.

**Q.** What about the Activity (Mus musculus [6]) of the same compound?
**A.** Its Activity is “inactive”.

**Q.** And the Activity (Mus musculus [1])?
**A.** The Activity was “Active”.

**Q.** Which results are given for `CC(=O)Oc1ccc(/C=C/c2cc(OC(C)=O)cc(OC(C)=O)c2)cc1` [TRIACETYLRESVERATROL]?
**A.** Activity (Mus musculus [2]): inactive; half-life [7]: 48 min; Activity (Mus musculus [4]; route intraperitoneal): 80%; Activity (Mus musculus [6]): inactive; Stability (Serum [8]): Unstable
